Data as given in US20250154169A1, “COMPOUNDS AND METHODS FOR MODULATING SPLICING” (REMIX THERAPEUTICS INC., priority 2021, published 2025).
Where a name gives a salt, the structure may show the parent alone. Read-outs that look alike come from different tables or passages of the source.

Experiments:
Type in all cases: cell-based, human
HTT mRNA [1] = test: Splicing RT-qPCR assay, HTT canonical (CJ) and alternative (AJ) junction mRNA; conditions: Homo sapiens, A673 or K562 cells, 24 hours compound treatment; for IC50: 24 h, read-out: HTT CJ (IC50, decrease in canonical junction mRNA); for AC50: read-out: HTT AJ (AC50, increase in alternative junction mRNA)
Method in brief: (§1)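 Compound-induced exon inclusion is tracked as an increase in AJ transcript alongside the CJ transcript. Cells (A673 normalized to PPIA; K562 to GAPDH or GUSB) are dosed 24 h with a serial dilution topping at 10 uM, ≤0.25% DMSO, then lysed and analysed by RT-qPCR in at least duplicate.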

MYB mRNA = test: Splicing RT-qPCR assay, MYB canonical (CJ) and alternative (AJ) junction mRNA; conditions: Homo sapiens; for AC50: read-out: MYB AJ (AC50, increase in alternative junction mRNA)
Method in brief: as §1

SMN2 mRNA = test: Splicing RT-qPCR gene panel, SMN2 canonical junction (CJ) mRNA; conditions: Homo sapiens, Tables 4A/4B, read-out: SMN2 (IC50, decrease in CJ mRNA, gene panel)
Method in brief: (§2)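 First, A673 cells adhered 24 h before dosing, while K562 cells were plated and dosed directly. Both lines were then exposed to compound for 24 h at 37 °C, 5% CO2, top concentration 10 uM. Finally, lysates underwent RT-qPCR of the canonical junction, with ΔΔCt-based relative quantification.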

Target C mRNA = test: Splicing RT-qPCR gene panel, Target C canonical junction (CJ) mRNA; conditions: Homo sapiens, Tables 4A/4B, read-out: Target C (IC50, decrease in CJ mRNA, gene panel)
Method in brief: as §2

HTT mRNA [2] = test: Splicing RT-qPCR gene panel, HTT canonical junction (CJ) mRNA; conditions: Homo sapiens, Tables 4A/4B, read-out: HTT (IC50, decrease in CJ mRNA, gene panel)
Method in brief: as §2

[3] = 24 h, A673 or K562 cells, 24 hours compound treatment, RT-qPCR
[4] = 24 h, A673 or K562 cells, 24 hours compound treatment, RT-qPCR, read-out: MYB CJ (IC50, decrease in canonical junction mRNA)
[5] = Tables 4A/4B, canonical junction qPCR panel, read-out: MYB (IC50, decrease in CJ mRNA, gene panel)

IC50 (HTT mRNA [1]) [nM]	IC50 (MYB mRNA; [4]) [nM]	IC50 (MYB mRNA; [5]) [nM]	IC50 (SMN2 mRNA) [nM]	IC50 (Target C mRNA) [nM]	IC50 (HTT mRNA [2]) [nM]	SMILES	AC50 (HTT mRNA [1]) [nM]	AC50 (MYB mRNA; [3]) [nM]
> 10000	1000 to 10000	1000 to 10000	100 to 1000	> 10000	> 10000	Cc1cn2cc(NC(=O)c3ccc(N4CCNCC4)c4cn(Cc5ccc6[nH]ncc6c5)nc34)cc(F)c2n1 [Compound 340, N-{8-fluoro-2-methylimidazo[1,2-a]pyridin-6-yl}-2-(1H-indazol-5-ylmethyl)-4-(piperazin-1-yl) indazole-7-carboxamide trifluoroacetate]	> 10000	1000 to 10000
> 10000	1000 to 10000	1000 to 10000	100 to 1000	> 10000	> 10000	Cc1cn2cc(NC(=O)c3ccc(N4CCNCC4)c4cn(Cc5cn[nH]c5)nc34)cc(F)c2n1 [Compound 341, N-{8-fluoro-2-methylimidazo[1,2-a]pyridin-6-yl}-4-(piperazin-1-yl)-2-(1H-pyrazol-4-ylmethyl)indazole-7-carboxamide]	> 10000	1000 to 10000

The next lines start with the molecule.

SMILES	IC50 (HTT mRNA [1]) [nM]	IC50 (MYB mRNA; [4]) [nM]	IC50 (MYB mRNA; [5]) [nM]	IC50 (SMN2 mRNA) [nM]	IC50 (Target C mRNA) [nM]	IC50 (HTT mRNA [2]) [nM]	AC50 (HTT mRNA [1]) [nM]	AC50 (MYB mRNA; [3]) [nM]
Cc1cn2cc(NC(=O)c3ccc(N4CCC(CN)CC4)c4cn(C)nc34)cc(F)c2n1 [Compound 335, 4-[4-(aminomethyl)piperidin-1-yl]-N-{8-fluoro-2-methylimidazo[1,2-a]pyridin-6-yl}-2-methylindazole-7-carboxamide]	> 10000	1000 to 10000	1000 to 10000	100 to 1000	> 10000	> 10000	> 10000	1000 to 10000
Cc1cn2cc(NC(=O)c3ccc(N4CCC(C)(N)CC4)c4cn(C)nc34)cc(F)c2n1 [Compound 336, 4-(4-amino-4-methylpiperidin-1-yl)-N-{8-fluoro-2-methylimidazo[1,2-a]pyridin-6-yl}-2-methylindazole-7-carboxamide]	100 to 1000	< 100	< 100	< 100	100 to 1000	100 to 1000	100 to 1000	< 100
Cc1cn2cc(NC(=O)c3ccc(N4CCNCC4)c4cn(CCCl)nc34)cc(F)c2n1 [Compound 337, 2-(2-chloroethyl)-N-{8-fluoro-2-methylimidazo[1,2-a]pyridin-6-yl}-4-(piperazin-1-yl)indazole-7-carboxamide]	1000 to 10000	100 to 1000	100 to 1000	< 100	> 10000	1000 to 10000	1000 to 10000	100 to 1000
Cc1cn2cc(NC(=O)c3ccc(N4CCNCC4)c4cn(CC5CCO5)nc34)cc(F)c2n1 (stereo not shown) [Compound 338, N-{8-fluoro-2-methylimidazo[1,2-a]pyridin-6-yl}-2-(oxetan-2-ylmethyl)-4-(piperazin-1-yl)indazole-7-carboxamide]	1000 to 10000	100 to 1000	100 to 1000	< 100	> 10000	1000 to 10000	1000 to 10000	100 to 1000
CC(=O)Cn1cc2c(N3CCNCC3)ccc(C(=O)Nc3cc(F)c4nc(C)cn4c3)c2n1 [Compound 339, N-{8-fluoro-2-methylimidazo[1,2-a]pyridin-6-yl}-2-(2-oxopropyl)-4-(piperazin-1-yl)indazole-7-carboxamide]	> 10000	1000 to 10000	1000 to 10000	100 to 1000	> 10000	> 10000	> 10000	1000 to 10000
Cc1cn2cc(NC(=O)c3ccc(N4CCNCC4)c4cn(C)nc34)[nH]c(=O)c2n1 [Compound 342, N-{8-hydroxy-2-methylimidazo[1,2-a]pyrazin-6-yl}-2-methyl-4-(piperazin-1-yl) indazole-7-carboxamide]	> 10000	1000 to 10000	1000 to 10000	> 10000	> 10000	> 10000	> 10000	> 10000
